Source: EP0387762A2, “Medicament with positive inotropic activity, containing a synergistically active mixture consisting of a benzimidazole and a beta-blocker, its preparation and use” (Dr. Karl Thomae GmbH, priority 1989, dated 1990)

Assays:
[1] = Acute toxicity, i.v., rat; details: in vivo, iv, Ratte, read-out: LD₅₀ i.v.
Source text: (§1) Die erfindungsgemäß einsetzten Verbindungen sind gut verträglich. So weist beispielsweise die Verbindung A folgende akute Toxizitäten auf: […]

[2] = Acute toxicity, p.o., mouse; details: in vivo, po, Maus, read-out: LD₅₀ p.o.
Source text: as §1

SMILES | LD50 [1] [mg/kg] | LD50 [2] [mg/kg]
CC1CC(=O)NN=C1c1ccc2nc(-c3ccc(O)cc3)[nH]c2c1 (stereo not drawn) [Verbindung B, 2-(4-Hydroxyphenyl)-5-(5-methyl-3-oxo-4,5-dihydro-2H-6-pyridazinyl)-benzimidazol] | > 100 | 
COc1ccc(-c2nc3ccc(C4=NNC(=O)CC4C)cc3[nH]2)cc1 (stereo not drawn) [Verbindung A, 2-(4-Methoxyphenyl)-5-(5-methyl-3-oxo-4,5-dihydro-2H-6-pyridazinyl)-benzimidazol] | 72 | 600
